The conditions of data set [1]: intravenous (IV) formulation; cited from earlier work.
The target of data set [2] is T1, human RXFP1 (Homo sapiens, UniProt Q9HBX9).
T1 construct: expressed in transfected cells
T1 sequence (Q9HBX9 1-757): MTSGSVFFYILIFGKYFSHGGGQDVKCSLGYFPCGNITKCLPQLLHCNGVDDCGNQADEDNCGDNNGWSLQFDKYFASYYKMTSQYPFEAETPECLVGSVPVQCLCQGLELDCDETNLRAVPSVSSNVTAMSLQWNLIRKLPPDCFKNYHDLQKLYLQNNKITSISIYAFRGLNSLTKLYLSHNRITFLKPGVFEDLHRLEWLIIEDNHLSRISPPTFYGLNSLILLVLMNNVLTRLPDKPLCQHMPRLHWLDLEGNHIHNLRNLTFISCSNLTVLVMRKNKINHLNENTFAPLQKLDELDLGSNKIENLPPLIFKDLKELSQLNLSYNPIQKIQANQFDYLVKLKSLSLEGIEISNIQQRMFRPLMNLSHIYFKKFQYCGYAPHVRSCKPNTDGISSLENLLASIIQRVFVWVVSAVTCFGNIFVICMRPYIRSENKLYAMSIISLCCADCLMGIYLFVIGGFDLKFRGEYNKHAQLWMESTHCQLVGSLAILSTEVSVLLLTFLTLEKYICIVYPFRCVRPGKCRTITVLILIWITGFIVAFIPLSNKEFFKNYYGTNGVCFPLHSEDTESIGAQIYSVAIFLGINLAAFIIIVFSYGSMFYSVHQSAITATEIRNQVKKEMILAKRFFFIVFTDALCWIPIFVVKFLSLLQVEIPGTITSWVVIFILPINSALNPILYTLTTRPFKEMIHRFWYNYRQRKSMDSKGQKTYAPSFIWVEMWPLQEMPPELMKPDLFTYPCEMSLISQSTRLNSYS
The data set is described as follows: RXFP1 cAMP assay (hRXFP1 HEK293 cAMP assay, HTRF). Particulars: HEK293 cells stably expressing human RXFP1, 30 min at room temperature, read-out: cAMP hRXFP1 HEK293 Assay EC50. Type of data set: cell-based. An outline of the steps: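 HEK293 cells stably expressing human RXFP1 (1500 cells/well) in HBSS/20 mM HEPES/0.05% BSA/0.5 mM IBMX. Compounds were tested at 0.010 nM–50 μM final (2% DMSO) for 30 min at room temperature. cAMP was measured by HTRF and values derived by 4-parameter logistic fit.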
In general terms: Cyclic AMP is a second messenger, typically raised through Gs and lowered through Gi signalling.

Take Serelaxin: the first-phase pharmacokinetic half-life in data set [1] was 5.4 min.

The term EC50 denotes the concentration needed to bring the measured effect to its halfway point. Regarding `COc1ccc(-c2cc(C(CO)NC(=O)C3CCOCC3)ccc2F)cc1C(=O)N[C@@H]1C2CCC(/C2=C/C2CC2)[C@@H]1C(=O)Nc1ccc(F)c(C(F)(F)F)c1` (stereo partly shown) [compound 257], in data set [2], the EC50 turned out to be 16 nM.

Consider `COc1ccc(C2=NOC3(CO)CCC23CO)cc1C(=O)N[C@H]1[C@@H](C(=O)Nc2ccc(F)c(C(F)(F)F)c2)[C@H]2CC[C@@H]1/C2=C\C1CC1` (single isomer, unassigned) [compound 623], for which, in data set [2], the concentration giving a half-maximal response (EC50) came to 169 nM.

Turning to `COc1ccc(C2=NO[C@H]3C[C@H](CO)CN23)cc1C(=O)N[C@H]1[C@@H](C(=O)Nc2ccc(F)c(C(F)(F)F)c2)[C@H]2CC[C@@H]1/C2=C\C1CCCC1` [compound 816], in data set [2], the concentration for a half-maximal effect (EC50) was determined as 1.6 nM.

Turning to `COc1ccc(-c2ccc(N3CCOCC3)nc2)cc1C(=O)N[C@H]1[C@@H](C(=O)Nc2ccc(F)c(C(F)(F)F)c2)[C@H]2CC[C@@H]1C2=C(C)C` [compound 81], the EC50 in data set [2] worked out at 39 nM.

For the compound `COc1cc(F)c(F)cc1C(=O)N[C@@H]1C2CCC(/C2=C/c2ccccc2C#N)[C@@H]1C(=O)Nc1ccc(F)c(C(F)(F)F)c1` (stereo partly shown) [compound 68], the EC50 in data set [2] turned out to be 3200 nM.

As to `CCCCC1[C@H]2CC[C@@H]1[C@H](C(=O)Nc1ccc(F)c(C(F)(F)F)c1)[C@@H]2NC(=O)c1cc(C2=NOC3CC(CO)CC23)ccc1OC` (stereo partly shown) [Example 467], the concentration giving a half-maximal response (EC50) in data set [2] turned out to be 4 nM.

On to `O=C(N[C@H]1[C@@H](C(=O)Nc2ccc(F)c(C(F)(F)F)c2)[C@H]2CC[C@@H]1/C2=C\C1CC1)c1cccc(C2=NOC3COCC23)c1` (single isomer, unassigned) [compound 719], for which, in data set [2], the EC50 amounted to 2490 nM.

For the compound `COc1ccc(C2=NO[C@H]3C[C@H](CO)C[C@@H]23)cc1C(=O)N[C@H]1[C@@H](C(=O)N[C@H](C)C2(C)CC2)[C@H]2CC[C@@H]1/C2=C\CC(O)C(F)(F)F` (stereo partly shown) [compound 815], the EC50 in data set [2] was 1.5 nM.

For the compound `COc1ccc(C#N)cc1C(=O)N[C@@H]1C2CCC(/C2=C/c2ccccc2)[C@@H]1C(=O)Nc1ccc(F)c(C(F)(F)F)c1` (stereo partly shown) [compound 128], the EC50 in data set [2] was found to be 55 nM.

Take `COc1ccc(-c2cc(C(=O)O)ccc2F)cc1C(=O)N[C@@H]1C2CCC(/C2=C/C(=O)N(C)C)[C@@H]1C(=O)Nc1ccc(F)c(C(F)(F)F)c1` (stereo partly shown) [Example 323]: the EC50 in data set [2] stood at 854 nM.

As for `COC(=O)C(NC(=O)C1CCOCC1)c1ccc(F)c(-c2ccc(OC)c(C(=O)N[C@@H]3C4CCC(/C4=C/C(F)(F)F)[C@@H]3C(=O)Nc3ccc(F)c(C(F)(F)F)c3)c2)c1` (stereo partly shown) [compound 247], the concentration for a half-maximal effect (EC50) in data set [2] is 73 nM.

Consider `COc1ccc(C2=NOC3CC(O)(C(F)(F)F)CC23)cc1C(=O)N[C@H]1[C@@H](C(=O)N[C@H](C)C2(C)CC2)[C@H]2CC[C@@H]1/C2=C\C1CC1` (stereo partly shown) [compound 859], for which the EC50 in data set [2] is 1.8 nM.

With `COc1ccc(-c2cnn(CC(=O)O)c2)cc1C(=O)N[C@@H]1C2CCC(/C2=C/c2ccccc2)[C@@H]1C(=O)Nc1ccc(F)c(C(F)(F)F)c1` (stereo partly shown) [compound 340], in data set [2], the EC50 stood at 62 nM.

For `COc1ccc(-c2cc([C@H](OC(=O)NC3CCC3)C(F)(F)F)ccc2F)cc1C(=O)N[C@@H]1C2CCC(/C2=C/C2CCCC2)[C@@H]1C(=O)Nc1ccc(F)c(C(F)(F)F)c1` (stereo partly shown) [compound 922], the concentration for a half-maximal effect (EC50) in data set [2] was determined as 2.2 nM.

Consider `COc1c(F)cc(C2=NOC3CC(CO)CC23)cc1C(=O)N[C@H]1[C@@H](C(=O)Nc2ccc(F)c(C(F)(F)F)c2)[C@H]2CC[C@@H]1/C2=C\C1CC(F)(F)C1` (stereo partly shown) [compound 918], for which the EC50 in data set [2] worked out at 5.5 nM.

`COc1ccc(-c2cc(C(=O)NS(=O)(=O)c3ccccc3)ccc2F)cc1C(=O)N[C@@H]1C2CCC(C2=C(C)C)[C@@H]1C(=O)Nc1ccc(F)c(C(F)(F)F)c1` (stereo partly shown) [Example 150]: the half-maximal effective concentration (EC50) in data set [2] was 190 nM.

Take `COc1ccc(Br)cc1C(=O)NC1C2CCC(C2=C(C)C)C1C(=O)Nc1ccc(F)c(C(F)(F)F)c1` (stereo not shown) [Example 76]: the concentration giving a half-maximal response (EC50) in data set [2] was found to be 400 nM.

In the case of `COc1ccc(C2CC3CNS(=O)(=O)C32)cc1C(=O)N[C@H]1[C@@H](C(=O)Nc2ccc(F)c(C(F)(F)F)c2)[C@H]2CC[C@@H]1/C2=C\C1CC1` (single isomer, unassigned) [compound 732], in data set [2], the EC50 was determined as 99 nM.

Turning to `COc1ccc(C2=NOC3COCC23)cc1C(=O)N[C@H]1[C@@H](C(=O)NCc2cc(C)ccc2C(F)(F)F)[C@H]2CC[C@@H]1/C2=C\C1CC1` (stereo partly shown) [compound 659], in data set [2], the EC50 was 347 nM.

As for `COc1ccc(-c2cccnc2)cc1C(=O)N[C@@H]1C2CCC(/C2=C/C2CC2)[C@@H]1C(=O)Nc1ccc(F)c(C(F)(F)F)c1` (stereo partly shown) [compound 278], the EC50 in data set [2] was 32 nM.

As to `COc1ccc(-c2cc(C(C)OC(=O)Nc3ccccc3)ccc2F)cc1C(=O)N[C@H]1[C@@H](C(=O)Nc2ccc(F)c(C(F)(F)F)c2)[C@H]2CC[C@@H]1/C2=C\C1CC1` (stereo partly drawn) [Example 222, 1-(3′-(((1R,2R,3S,4R,Z)-7-(cyclopropylmethylene)-3-((4-fluoro-3-(trifluoromethyl)phenyl)carbamoyl)bicyclo[2.2.1]heptan-2-yl)carbamoyl)-6-fluoro-4′-methoxy-[1,1′-biphenyl]-3-yl)ethyl phenylcarbamate], the EC50 in data set [2] amounted to 1 nM.

Turning to `COc1ccc([C@H]2CO[C@@H]3[C@H]2OC[C@@H]3O)cc1C(=O)N[C@H]1[C@@H](C(=O)Nc2ccc(F)c(C(F)(F)F)c2)[C@H]2CC[C@@H]1/C2=C\C1CC1` [compound 560], the EC50 in data set [2] was 45.3 nM.

As for `COc1ccc(C2=NOC3C(O)CC(O)C23)cc1C(=O)N[C@H]1[C@@H](C(=O)Nc2ccc(F)c(C(F)(F)F)c2)[C@H]2CC[C@@H]1/C2=C\C1CC1` (stereo partly drawn) [Example 413, (1R,2S,3R,4R,Z)-7-(cyclopropylmethylene)-3-(5-(4,6-dihydroxy-3a,5,6,6a-tetrahydro-4H-cyclopenta[d]isoxazol-3-yl)-2-methoxybenzamido)-N-(4-fluoro-3-(trifluoromethyl)phenyl)bicyclo[2.2.1]heptane-2-carboxamide], the concentration giving a half-maximal response (EC50) in data set [2] was determined as 39 nM.

On to `COc1cc(C)c(C2=NOC3CC(CO)CC23)cc1C(=O)N[C@H]1[C@@H](C(=O)Nc2ccc(F)c(C(F)(F)F)c2)[C@H]2CC[C@@H]1C2CC1CC1` (stereo partly shown) [compound 739], for which the concentration for a half-maximal effect (EC50) in data set [2] was 3.4 nM.

The record behind these values is patent publication US20250221966A1, “RXFP1 AGONISTS” (BRISTOL-MYERS SQUIBB COMPANY, priority 2021, published 2025).
